Data reported in paper PMC6297231 (Nature Communications, 2018).

Tests used:
Test in all cases: cells
A2058 = settings: Homo sapiens, A2058, 6 h, read-out: AZD5991 6h EC50
Experimental: (§1) Cells were plated at 3000 cells/well in 384-well white plates in corresponding cell growth media. […] Caspase-3/7 activation was subsequently determined using a Caspase-Glo 3/7 Reagent (Promega) and viability was assayed using the CellTiter-Glo Reagent (Promega) as described in manufacturer’s instructions. Dose–response curves for caspase-3/7 activation and viability were plotted and analyzed (including EC50 and GI50 determination) using GraphPad Prism. Percentage of caspase activation was calculated against the maximum caspase activation value (100%) obtained with a proprietary cell kill control.

MAVER1 = settings: Homo sapiens, Maver1, 6 h, read-out: AZD5991 6h EC50
Experimental: as §1

T47D = settings: Homo sapiens, 6 h, read-out: AZD5991 6h EC50
Experimental: as §1

BT549 = settings: Homo sapiens, BT-549, 6 h, read-out: AZD5991 6h EC50
Experimental: as §1

Sudhl2 = settings: Homo sapiens, SU-DHL-2, 6 h, read-out: AZD5991 6h EC50
Experimental: as §1

EVSAT = settings: Homo sapiens, EVSA-T, 6 h, read-out: AZD5991 6h EC50
Experimental: as §1

OCILY3 = settings: Homo sapiens, OCI-Ly3, 6 h, read-out: AZD5991 6h EC50
Experimental: as §1

MUTZ3 = settings: 6 h, read-out: AZD5991 6h EC50
Experimental: as §1

WSUNHL = settings: Homo sapiens, WSU-NHL, 6 h, read-out: AZD5991 6h EC50
Experimental: as §1

KG1a = settings: Homo sapiens, KG-1a, 6 h, read-out: AZD5991 6h EC50
Experimental: as §1

DMS53 = settings: Homo sapiens, DMS-53, 6 h, read-out: AZD5991 6h EC50
Experimental: as §1

JJN3 = settings: Homo sapiens, JJN-3, 6 h, read-out: AZD5991 6h EC50
Experimental: as §1

RCK8 = settings: Homo sapiens, RCK8, 6 h, read-out: AZD5991 6h EC50
Experimental: as §1

EOL1 = settings: Homo sapiens, EOL1, 6 h, read-out: AZD5991 6h EC50
Experimental: as §1

ULA = settings: 6 h, read-out: AZD5991 6h EC50
Experimental: as §1

FaDu = settings: Homo sapiens, 6 h, read-out: AZD5991 6h EC50
Experimental: as §1

OCILY1 = settings: Homo sapiens, OCI-Ly1, 6 h, read-out: AZD5991 6h EC50
Experimental: as §1

Sudhl8 = settings: Homo sapiens, SU-DHL-8, 6 h, read-out: AZD5991 6h EC50
Experimental: as §1

HCC1187 = settings: Homo sapiens, HCC1187, 6 h, read-out: AZD5991 6h EC50
Experimental: as §1

BT20 = settings: Homo sapiens, BT-20, 6 h, read-out: AZD5991 6h EC50
Experimental: as §1

Kasumi3 = settings: Kasumi-3, 6 h, read-out: AZD5991 6h EC50
Experimental: as §1

RI1 = settings: Ri-1, 6 h, read-out: AZD5991 6h EC50
Experimental: as §1

H1395 = settings: Homo sapiens, NCI-H1395, 6 h, read-out: AZD5991 6h EC50
Experimental: as §1

DOHH2 = settings: Homo sapiens, DOHH-2, 6 h, read-out: AZD5991 6h EC50
Experimental: as §1

GIST 430/654 = settings: GIST-430/654, 6 h, read-out: AZD5991 6h EC50
Experimental: as §1

H322 = settings: NCI-H322, 6 h, read-out: AZD5991 6h EC50
Experimental: as §1

JVM2 = settings: Homo sapiens, JVM-2, 6 h, read-out: AZD5991 6h EC50
Experimental: as §1

MDAMB468 = settings: Homo sapiens, MDA-MB-468, 6 h, read-out: AZD5991 6h EC50
Experimental: as §1

Sudhl10 = settings: Homo sapiens, SU-DHL10, 6 h, read-out: AZD5991 6h EC50
Experimental: as §1

REC1 = settings: Homo sapiens, Rec1, 6 h, read-out: AZD5991 6h EC50
Experimental: as §1

LUDLU1 = settings: LUDLU-1, 6 h, read-out: AZD5991 6h EC50
Experimental: as §1

Daudi = settings: Homo sapiens, 6 h, read-out: AZD5991 6h EC50
Experimental: as §1

U2932 = settings: Homo sapiens, U2932, 6 h, read-out: AZD5991 6h EC50
Experimental: as §1

Karpas422 = settings: Homo sapiens, KARPAS-422, 6 h, read-out: AZD5991 6h EC50
Experimental: as §1

H647 = settings: Homo sapiens, NCI-H647, 6 h, read-out: AZD5991 6h EC50
Experimental: as §1

With Cc1c2c(nn1C)CSCc1cc(n(C)n1)CSc1cc(c3ccccc3c1)OCCCc1c(C(=O)O)n(C)c3c-2c(Cl)ccc13 (atropisomer, axis not shown; (Ra)) [(Ra)-7] as the molecule, how does the EC50 (A2058) read?
Its EC50 is > 30 µM.

And the EC50 (MAVER1)?
The EC50 was 27.8 µM.

What about the EC50 (T47D) of the same molecule?
The EC50 was > 30 µM.

And the EC50 (BT549)?
Its EC50 is 1780 nM.

And the EC50 (Sudhl2)?
The EC50 was 275 nM.

And the EC50 (EVSAT)?
Its EC50 is 160 nM.

What about the EC50 (OCILY3) of the same molecule?
The EC50 was > 30 µM.

And the EC50 (MUTZ3)?
Its EC50 is 26 nM.

And the EC50 (WSUNHL)?
Its EC50 is 512 nM.

What about the EC50 (KG1a) of the same molecule?
Its EC50 is 1420 nM.

And the EC50 (DMS53)?
Its EC50 is > 30 µM.

What about the EC50 (JJN3) of the same molecule?
Its EC50 is 223 nM.

And the EC50 (RCK8)?
The EC50 was > 30 µM.

And the EC50 (EOL1)?
Its EC50 is 13 nM.

What about the EC50 (ULA) of the same molecule?
Its EC50 is 207 nM.

And the EC50 (FaDu)?
The EC50 was 23.3 µM.

And the EC50 (OCILY1)?
The EC50 was 547 nM.

What about the EC50 (Sudhl8) of the same molecule?
The EC50 was 595 nM.

What about the EC50 (HCC1187) of the same molecule?
The EC50 was 235 nM.

And the EC50 (BT20)?
The EC50 was > 30 µM.

What about the EC50 (Kasumi3) of the same molecule?
Its EC50 is 882 nM.

And the EC50 (RI1)?
The EC50 was > 30 µM.

What about the EC50 (H1395) of the same molecule?
Its EC50 is 15.4 µM.

What about the EC50 (DOHH2) of the same molecule?
The EC50 was 136 nM.

What about the EC50 (GIST 430/654) of the same molecule?
Its EC50 is 18.6 µM.

What about the EC50 (H322) of the same molecule?
Its EC50 is > 30 µM.

What about the EC50 (JVM2) of the same molecule?
The EC50 was 1030 nM.

And the EC50 (MDAMB468)?
The EC50 was > 30 µM.

What about the EC50 (Sudhl10) of the same molecule?
The EC50 was 10 nM.

And the EC50 (REC1)?
The EC50 was 2010 nM.

And the EC50 (LUDLU1)?
Its EC50 is 1890 nM.

What about the EC50 (Daudi) of the same molecule?
The EC50 was 16.1 µM.

What about the EC50 (U2932) of the same molecule?
The EC50 was 24.2 µM.

And the EC50 (Karpas422)?
The EC50 was 530 nM.

What about the EC50 (H647) of the same molecule?
The EC50 was > 30 µM.
